The values below come from patent US20250206708A1, “AN OXAZIRIDINE PLATFORM FOR TARGETING FUNCTIONAL ALLOSTERIC METHIONINE SITES” (Novartis AG, priority 2022, published 2025).

Tested on in one series: not given
Assay: not given
To be noted: sulfimine adduct; obtained from previous report; the values are: ln(kobs), kobs in 1/h; cited from earlier work.
As to `CCNC(=O)N=S(C)C`, the Rate of Hydrolysis (In(kobs)) is 0.17.
As to `CS(C)=NC(=O)NC1CCCCC1`, the Rate of Hydrolysis (In(kobs)) is 0.032.
For the compound `CS(C)=NC(=O)NC(C)(C)C`, the Rate of Hydrolysis (In(kobs)) is -0.28.
For the compound `CC(C)CNC(=O)N=S(C)C`, the Rate of Hydrolysis (In(kobs)) is -0.085.
For the compound `CS(C)=NC(=O)NCc1ccccc1`, the Rate of Hydrolysis (In(kobs)) is 0.29.
Regarding `CS(C)=NC(=O)N1CCCCC1`, the Rate of Hydrolysis (In(kobs)) was -1.81.
`CCOC(=O)N=S(C)C`: the Rate of Hydrolysis (In(kobs)) is 1.69.
`CS(C)=NC(=O)NC(c1ccccc1)c1ccccc1`: the Rate of Hydrolysis (In(kobs)) is 0.24.
On to `CS(C)=NC(=O)N1CCCC1`, for which the Rate of Hydrolysis (In(kobs)) was -0.96.
For `CC(C)NC(=O)N=S(C)C`, the Rate of Hydrolysis (In(kobs)) was 0.044.
As to `CS(C)=NC(=O)NCC(F)(F)F`, the Rate of Hydrolysis (In(kobs)) is 0.53.
Turning to `CS(C)=NC(=O)NCC(C)(C)C`, the Rate of Hydrolysis (In(kobs)) is -0.15.

Another series relates to CDK4. Kind of series: Western blot of Rb phosphorylation (S780, S807/811) as cellular CDK4 activity. It counts as cell-based, human. The following applies: serum-synchronized MCF-7 cells, dose of 500 μM. As for the experimental part: Cells were synchronized to G1 via serum starvation. Cells were plated at 50% confluency and allowed to adhere overnight in serum-containing media. The next morning, the cells were gently washed twice with HBSS, and serum-free media was added. Cells were allowed to incubate an additional […], […]. Final cell confluency should remain below 75% for optimal results.
Cells were seeded in full media at 8 e5 cells/well in a 6-well plate. They were then serum-synchronized, as outlined in Example 15, and treated with compound as described previously. Cells were monitored by eye for cell death and harvested once high-dose cells were round but not detached. Cells were transferred to ice and washed twice gently with 1 mL ice-cold PBS. 10 mL of lysis buffer was prepared by dissolved a protease-inhibitor table (Pierce; cat no. A32953) and a phosphatase-inhibitor tablet (Roche; cat no. 4906845001) in 10 mL PBS (1% Triton X-100). Cells were scraped to harvest, transferred to 1.5 mL Eppendorf tubes, and incubated at 4° C. for 30 min on a rotator. Samples were spun at 5000×g for 10 min to clarify lysate. Supernatant was transferred to a new tube and protein concentration quantified via BCA assay (Pierce; cat no. 23225). Samples were normalized to the lowest concentration using chilled lysis buffer. […]
`C#CCOC(=O)N1C[C@@H]2CN(C(=O)N3OC3c3ccccc3)C[C@@H]2C1` (stereo partly shown) [Compound 300]: the “signal from pRb antibodies (cellular CDK4 activity)” value is recorded as “marked decrease in signal”.
